The inhibition is the share of the control response that was lost under treatment. The IC50 is the concentration that inhibits the measured activity by half.

SMILES strings stand for the structures.

T1 sequence (Q02127 whole entry): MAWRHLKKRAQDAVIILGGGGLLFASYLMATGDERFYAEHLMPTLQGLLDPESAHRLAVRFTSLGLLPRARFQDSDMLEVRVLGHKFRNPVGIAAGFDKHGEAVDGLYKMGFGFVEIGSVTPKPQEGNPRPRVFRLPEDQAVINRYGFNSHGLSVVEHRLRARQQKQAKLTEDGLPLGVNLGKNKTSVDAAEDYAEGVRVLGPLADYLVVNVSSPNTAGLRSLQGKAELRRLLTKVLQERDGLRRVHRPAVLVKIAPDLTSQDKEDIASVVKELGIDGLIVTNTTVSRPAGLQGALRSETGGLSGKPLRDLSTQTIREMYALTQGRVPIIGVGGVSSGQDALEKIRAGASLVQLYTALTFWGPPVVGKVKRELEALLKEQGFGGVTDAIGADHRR

The first assay addresses T1, Dihydroorotate dehydrogenase (quinone), mitochondrial (Homo sapiens, UniProt Q02127). In words: Inhibition of human DHODH assessed as decrease in DCIP at 10 uM using dihydroorotate as substrate measured every 30 seconds for 6 mins.
`COc1cccc(OC)c1NC(=O)c1cccc2nc(-c3cc(Br)nn3-c3ncccc3Cl)[nH]c12`: the inhibition was determined as 0%. For the compound `Cc1ccc(CNC(=O)c2cccc3nc(-c4cc(Br)nn4-c4ncccc4Cl)[nH]c23)cc1`, the inhibition was determined as 22.7%.

Turning to `O=C(NCc1c(F)ccc(F)c1F)c1cccc2nc(-c3cc(Br)nn3-c3ncccc3Cl)[nH]c12`, the inhibition was 43%.

For `CCCNC(=O)c1cccc2nc(-c3cc(Br)nn3-c3ncccc3Cl)[nH]c12`, the inhibition worked out at 23.4%. Still for that read-out and setting: the result for `O=C(Nc1ccc(C(F)(F)F)cc1)c1cccc2nc(-c3cc(Br)nn3-c3ncccc3Cl)[nH]c12` reads 36.3%; that for `O=C(Nc1ccccc1)c1cccc2nc(-c3cc(Br)nn3-c3ncccc3Cl)[nH]c12`, 49.4%. For `COc1ccccc1NC(=O)c1cccc2nc(-c3cc(Br)nn3-c3ncccc3Cl)[nH]c12`, the inhibition was 60.5%. Take `CNC(=O)c1cccc2nc(-c3cc(Br)nn3-c3ncccc3Cl)[nH]c12`: the inhibition is 14.1%. Regarding `Cc1cccc(NC(=O)c2cccc3nc(-c4cc(Br)nn4-c4ncccc4Cl)[nH]c23)c1`, the inhibition stood at 18.9%. The same measure, in the same setting: the result for `O=C(NCc1ccccc1)c1cccc2nc(-c3cc(Br)nn3-c3ncccc3Cl)[nH]c12` reads 34.9%; that for `CCCNC(=O)c1cccc2nc(-c3cc(Br)nn3-c3ncccc3Cl)oc12`, 26.6%; that for `Cc1ccc(NC(=O)c2cccc3nc(-c4cc(Br)nn4-c4ncccc4Cl)[nH]c23)c(C)c1`, 48.8%.

Regarding `O=C(Nc1ccccc1Br)c1cccc2nc(-c3cc(Br)nn3-c3ncccc3Cl)[nH]c12`, the inhibition was found to be 27.6%. Take `O=C(NCc1ccccn1)c1cccc2nc(-c3cc(Br)nn3-c3ncccc3Cl)[nH]c12`: the inhibition was 27.6%. Consider `O=C(Nc1ccccc1I)c1cccc2nc(-c3cc(Br)nn3-c3ncccc3Cl)[nH]c12`, for which the inhibition came out at 24.8%.

As to `COc1cccc(F)c1NC(=O)c1cccc2nc(-c3cc(Br)nn3-c3ncccc3Cl)[nH]c12`, the inhibition is 15.7%. Still for that read-out and setting: next, `Cc1ccccc1NC(=O)c1cccc2nc(-c3cc(Br)nn3-c3ncccc3Cl)[nH]c12`: 73.9%; `O=C(Nc1ccc(F)c(F)c1F)c1cccc2nc(-c3cc(Br)nn3-c3ncccc3Cl)[nH]c12`: 31.9%; `CCNC(=O)c1cccc2nc(-c3cc(Br)nn3-c3ncccc3Cl)[nH]c12`: 24.9%. In the case of `O=C(NCc1ccc(C(F)(F)F)cc1)c1cccc2nc(-c3cc(Br)nn3-c3ncccc3Cl)[nH]c12`, the inhibition was found to be 32%. Turning to `COc1cccc(C)c1NC(=O)c1cccc2nc(-c3cc(Br)nn3-c3ncccc3Cl)[nH]c12`, the inhibition stood at 9.43%. On to `COc1ccc(NC(=O)c2cccc3nc(-c4cc(Br)nn4-c4ncccc4Cl)[nH]c23)c(OC)c1`, for which the inhibition was 1.3%.

As for `O=C(Nc1ccc(F)cc1F)c1cccc2nc(-c3cc(Br)nn3-c3ncccc3Cl)[nH]c12`, the inhibition is 26.9%. In the case of `C/C(O)=C(\C#N)C(=O)Nc1ccc(C(F)(F)F)cc1`, the inhibition came to 64%. As for `CCCNC(=O)c1cccc2oc(-c3cc(Br)nn3-c3ncccc3Cl)nc12`, the inhibition amounted to 30.1%.

`O=C(Nc1ccccc1F)c1cccc2nc(-c3cc(Br)nn3-c3ncccc3Cl)[nH]c12`: the inhibition came to 38.8%.

For `O=C(NCc1ccc(Cl)cc1)c1cccc2nc(-c3cc(Br)nn3-c3ncccc3Cl)[nH]c12`, the inhibition amounted to 44%. As for `COc1ccc(C(F)(F)F)cc1NC(=O)c1cccc2nc(-c3cc(Br)nn3-c3ncccc3Cl)[nH]c12`, the inhibition worked out at 55.2%. As for `COc1ccc(NC(=O)c2cccc3nc(-c4cc(Br)nn4-c4ncccc4Cl)[nH]c23)cc1`, the inhibition worked out at 36.1%.

For another assay, the target named is T1, Dihydroorotate dehydrogenase (quinone), mitochondrial. In words: Inhibition of human DHODH assessed as decrease in DCIP using dihydroorotate as substrate measured every 30 seconds for 6 mins.
Turning to `COc1ccccc1NC(=O)c1cccc2nc(-c3cc(Br)nn3-c3ncccc3Cl)[nH]c12`, the IC50 is 0.178 µM. On the same count and under the same terms, the result for `Cc1ccccc1NC(=O)c1cccc2nc(-c3cc(Br)nn3-c3ncccc3Cl)[nH]c12` reads 0.676 µM; that for `COc1ccc(C(F)(F)F)cc1NC(=O)c1cccc2nc(-c3cc(Br)nn3-c3ncccc3Cl)[nH]c12`, 4.85 µM.

A further assay shares this target. In words: Potency index, ratio of A771726 IC50 to compound IC50 for human DHODH.
As for `COc1ccccc1NC(=O)c1cccc2nc(-c3cc(Br)nn3-c3ncccc3Cl)[nH]c12`, the Ratio IC50 worked out at 2.

These data come from ChEMBL document CHEMBL3808318, “Design, synthesis and inhibitory activity against human dihydroorotate dehydrogenase (hDHODH) of 1,3-benzoazole derivatives bearing amide units” (Bioorg Med Chem Lett, 2016).
